Reference: PubChem BioAssay AID1259407 (Chemical Carcinogenesis Research Information System (CCRIS), 2018)
Active and inactive are the calls of the source. How the calls were made is not given here.

Tested on: CCRIS mutagenicity, Ames/micronucleus/aberration tests
Assay: CCRIS mutagenicity studies
[1] = Test System: AMES SALMONELLA TYPHIMURIUM, Strain/Indicator: TA98, Metabolic Activation: NONE, Method: STANDARD PLATE
[2] = Test System: AMES SALMONELLA TYPHIMURIUM, Strain/Indicator: TA98, Metabolic Activation: RAT, LIVER, S-9, AROCLOR 1254, Method: STANDARD PLATE
[3] = Test System: AMES SALMONELLA TYPHIMURIUM, Strain/Indicator: TA100, Metabolic Activation: NONE, Method: STANDARD PLATE
[4] = Test System: AMES SALMONELLA TYPHIMURIUM, Strain/Indicator: TA100, Metabolic Activation: RAT, LIVER, S-9, AROCLOR 1254, Method: STANDARD PLATE
[5] = Test System: AMES SALMONELLA TYPHIMURIUM, Strain/Indicator: TA1537, Metabolic Activation: NONE, Method: STANDARD PLATE
[6] = Test System: AMES SALMONELLA TYPHIMURIUM, Strain/Indicator: TA98, Metabolic Activation: NONE, Method: PREINCUBATION
[7] = Test System: AMES SALMONELLA TYPHIMURIUM, Strain/Indicator: TA100, Metabolic Activation: NONE, Method: PREINCUBATION

SMILES: C=C(C)C(=O)OCCCCCCOC(=O)C(=C)C
- mutagenic call [1]: inactive; negative
- mutagenic call [2]: inactive; negative
- mutagenic call (Test System: AMES SALMONELLA TYPHIMURIUM, Strain/Indicator: TA98, Metabolic Activation: RAT, LIVER, S-9, SODIUM PHENOBARBITAL, Method: STANDARD PLATE): inactive; negative
- mutagenic call [3]: inactive; negative
- mutagenic call [4]: inactive; negative
- mutagenic call (Test System: AMES SALMONELLA TYPHIMURIUM, Strain/Indicator: TA100, Metabolic Activation: RAT, LIVER, S-9, SODIUM PHENOBARBITAL, Method: STANDARD PLATE): inactive; negative
- mutagenic call (Test System: AMES SALMONELLA TYPHIMURIUM, Strain/Indicator: TA1535, Metabolic Activation: NONE, Method: STANDARD PLATE): inactive; negative
- mutagenic call (Test System: AMES SALMONELLA TYPHIMURIUM, Strain/Indicator: TA1535, Metabolic Activation: RAT, LIVER, S-9, AROCLOR 1254, Method: STANDARD PLATE): inactive; negative
- mutagenic call (Test System: AMES SALMONELLA TYPHIMURIUM, Strain/Indicator: TA1535, Metabolic Activation: RAT, LIVER, S-9, SODIUM PHENOBARBITAL, Method: STANDARD PLATE): inactive; negative
- mutagenic call [5]: inactive; negative
- mutagenic call (Test System: AMES SALMONELLA TYPHIMURIUM, Strain/Indicator: TA1537, Metabolic Activation: RAT, LIVER, S-9, AROCLOR 1254, Method: STANDARD PLATE): inactive; negative
- mutagenic call (Test System: AMES SALMONELLA TYPHIMURIUM, Strain/Indicator: TA1537, Metabolic Activation: RAT, LIVER, S-9, SODIUM PHENOBARBITAL, Method: STANDARD PLATE): inactive; negative
- mutagenic call (Test System: AMES SALMONELLA TYPHIMURIUM, Strain/Indicator: TA1538, Metabolic Activation: NONE, Method: STANDARD PLATE): inactive; negative
- mutagenic call (Test System: AMES SALMONELLA TYPHIMURIUM, Strain/Indicator: TA1538, Metabolic Activation: RAT, LIVER, S-9, AROCLOR 1254, Method: STANDARD PLATE): inactive; negative
- mutagenic call (Test System: AMES SALMONELLA TYPHIMURIUM, Strain/Indicator: TA1538, Metabolic Activation: RAT, LIVER, S-9, SODIUM PHENOBARBITAL, Method: STANDARD PLATE): inactive; negative

SMILES: COc1ccc(N)cc1N
- mutagenic call (Test System: AMES SALMONELLA TYPHIMURIUM, Strain/Indicator: TA97, Metabolic Activation: HAMSTER, LIVER, S-9, AROCLOR 1254 (10%), Method: PREINCUBATION): active; positive
- mutagenic call (Test System: AMES SALMONELLA TYPHIMURIUM, Strain/Indicator: TA97, Metabolic Activation: NONE, Method: PREINCUBATION): inactive; negative
- mutagenic call (Test System: AMES SALMONELLA TYPHIMURIUM, Strain/Indicator: TA97, Metabolic Activation: RAT, LIVER, S-9, AROCLOR 1254 (4 OR 10%), Method: STANDARD PLATE): active; positive
- mutagenic call (Test System: AMES SALMONELLA TYPHIMURIUM, Strain/Indicator: TA97, Metabolic Activation: RAT, LIVER, S-9, AROCLOR 1254 (10%), Method: PREINCUBATION): active; positive
- mutagenic call (Test System: AMES SALMONELLA TYPHIMURIUM, Strain/Indicator: TA98, Metabolic Activation: HAMSTER, LIVER, S-9, AROCLOR 1254 (10%), Method: PREINCUBATION): active; positive
- mutagenic call [6]: active; positive
- mutagenic call (Test System: AMES SALMONELLA TYPHIMURIUM, Strain/Indicator: TA98, Metabolic Activation: RAT, LIVER, S-9, AROCLOR 1254 (10%), Method: PREINCUBATION): active; positive
- mutagenic call (Test System: AMES SALMONELLA TYPHIMURIUM, Strain/Indicator: TA100, Metabolic Activation: HAMSTER, LIVER, S-9, AROCLOR 1254 (10%), Method: PREINCUBATION): active; positive
- mutagenic call [7]: inactive; negative
- mutagenic call (Test System: AMES SALMONELLA TYPHIMURIUM, Strain/Indicator: TA100, Metabolic Activation: RAT, LIVER, S-9, AROCLOR 1254 (10%), Method: PREINCUBATION): active; positive
- mutagenic call (Test System: AMES SALMONELLA TYPHIMURIUM, Strain/Indicator: TA1535, Metabolic Activation: HAMSTER, LIVER, S-9, AROCLOR 1254 (10%), Method: PREINCUBATION): inactive; negative
- mutagenic call (Test System: AMES SALMONELLA TYPHIMURIUM, Strain/Indicator: TA1535, Metabolic Activation: NONE, Method: PREINCUBATION): inactive; negative
- mutagenic call (Test System: AMES SALMONELLA TYPHIMURIUM, Strain/Indicator: TA1535, Metabolic Activation: RAT, LIVER, S-9, AROCLOR 1254 (10%), Method: PREINCUBATION): inactive; negative
- mutagenic call (Test System: AMES SALMONELLA TYPHIMURIUM, Strain/Indicator: TA1537, Metabolic Activation: RAT, LIVER, S-9, AROCLOR 1254 (4 OR 10%), Method: STANDARD PLATE): active; positive
- mutagenic call (Test System: AMES SALMONELLA TYPHIMURIUM, Strain/Indicator: TA1538, Metabolic Activation: RAT, LIVER, S-9, AROCLOR 1254 (4 OR 10%), Method: STANDARD PLATE): active; positive
- mutagenic call (Test System: CHINESE HAMSTER V-79, Strain/Indicator: V-79/6-THIOGUANINE, Metabolic Activation: NONE, Method: SUSPENSION/PLATE): active; positive
- mutagenic call (Test System: CHINESE HAMSTER V-79, Strain/Indicator: V-79/6-THIOGUANINE, Metabolic Activation: RAT, LIVER, S-9, PHENOBARBITAL AND BETA-NAPHTHOFLAVONE, Method: SUSPENSION/PLATE): inactive; negative
- mutagenic call (Test System: E. COLI, Strain/Indicator: WP2 UVRA, Metabolic Activation: HAMSTER, LIVER, S-9, AROCLOR 1254, Method: STANDARD PLATE): inactive; negative
- mutagenic call (Test System: E. COLI, Strain/Indicator: WP2 UVRA, Metabolic Activation: HAMSTER, LIVER, S-9, Method: STANDARD PLATE): inactive; negative
- mutagenic call (Test System: E. COLI, Strain/Indicator: WP2 UVRA, Metabolic Activation: MOUSE, LIVER, S-9, AROCLOR 1254, Method: STANDARD PLATE): inactive; negative
- mutagenic call (Test System: E. COLI, Strain/Indicator: WP2 UVRA, Metabolic Activation: MOUSE, LIVER, S-9, Method: STANDARD PLATE): inactive; negative
- mutagenic call (Test System: E. COLI, Strain/Indicator: WP2 UVRA, Metabolic Activation: NONE, Method: STANDARD PLATE): inactive; negative
- mutagenic call (Test System: E. COLI, Strain/Indicator: WP2 UVRA, Metabolic Activation: RAT, LIVER, S-9, AROCLOR 1254, Method: STANDARD PLATE): inactive; negative
- mutagenic call (Test System: E. COLI, Strain/Indicator: WP2 UVRA, Metabolic Activation: RAT, LIVER, S-9, Method: STANDARD PLATE): inactive; negative
- mutagenic call (Test System: MOUSE LYMPHOMA, Strain/Indicator: L5178Y (TK+/TK-), Metabolic Activation: NONE, Method: SUSPENSION/PLATE): active; positive
- mutagenic call (Test System: MOUSE LYMPHOMA, Strain/Indicator: L5178Y (TK+/TK-), Metabolic Activation: RAT, LIVER, S-9, AROCLOR 1254, Method: SUSPENSION/PLATE): active; positive

SMILES: CSC[C@H](N)C(=O)O
- mutagenic call [6]: inactive; negative
- mutagenic call (Test System: AMES SALMONELLA TYPHIMURIUM, Strain/Indicator: TA98, Metabolic Activation: RAT, LIVER OR KIDNEY, MICROSOMES, Method: PREINCUBATION): inactive; negative
- mutagenic call [7]: inactive; negative
- mutagenic call (Test System: AMES SALMONELLA TYPHIMURIUM, Strain/Indicator: TA100, Metabolic Activation: RAT, LIVER OR KIDNEY, MICROSOMES, Method: PREINCUBATION): inactive; negative
- mutagenic call (Test System: AMES SALMONELLA TYPHIMURIUM, Strain/Indicator: TA102, Metabolic Activation: NONE, Method: PREINCUBATION): inactive; negative
- mutagenic call (Test System: AMES SALMONELLA TYPHIMURIUM, Strain/Indicator: TA102, Metabolic Activation: RAT, LIVER OR KIDNEY, MICROSOMES, Method: PREINCUBATION): inactive; negative
- mutagenic call (Test System: AMES SALMONELLA TYPHIMURIUM, Strain/Indicator: TA2638, Metabolic Activation: NONE, Method: PREINCUBATION): inactive; negative
- mutagenic call (Test System: AMES SALMONELLA TYPHIMURIUM, Strain/Indicator: TA2638, Metabolic Activation: RAT, LIVER OR KIDNEY, MICROSOMES, Method: PREINCUBATION): inactive; negative

SMILES: Oc1ccc2c3ccccc3c3cc4ccccc4cc3c2c1O
- mutagenic call (Test System: AMES SALMONELLA TYPHIMURIUM, Strain/Indicator: TA100, Metabolic Activation: RAT, LIVER, S-9, AROCLOR 1254, Method: PREINCUBATION): active; positive

SMILES: O=C(c1ccccc1)C1OC1c1ccccc1 (stereo not drawn)
- mutagenic call [1]: inactive; negative
- mutagenic call [2]: inactive; negative
- mutagenic call [3]: active; positive
- mutagenic call [4]: active; positive

SMILES: CC(C)CC(=O)Nc1snc2ccccc12
- mutagenic call [3]: inactive; negative
- mutagenic call (Test System: AMES SALMONELLA TYPHIMURIUM, Strain/Indicator: TA100, Metabolic Activation: S-9, Method: STANDARD PLATE): inactive; negative
- mutagenic call [5]: inactive; negative
- mutagenic call (Test System: AMES SALMONELLA TYPHIMURIUM, Strain/Indicator: TA1537, Metabolic Activation: S-9, Method: STANDARD PLATE): inactive; negative
